Laboratory results from the supplement of paper PMC5662764.
± gives the standard deviation of the averaged measurements.

Experiments:
Assay in all cases: normalised growth rate inhibition (GR value) relative to DMSO control (GR (1 = untreated growth, 0 = cytostasis, <0 = cytotoxic)); higher = less growth inhibition
Settings in all cases: 72 h
HS578T = tested on: HS578T
Procedure: (§1)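 Breast cancer cell lines (BT-20, Hs 578T, MCF 10A, MCF7, MDA-MB-231, SK-BR-3) were plated in 384-well plates and treated 24 h later with drugs at six concentrations (0.04-10 µM). Viable cells were counted by Hoechst/dead-cell-stain imaging at 0 and 72 h. Counts were normalised to DMSO controls on the same plate to give the relative cell count and the growth-rate inhibition (GR) value; technical plate triplicates were averaged for each biological replicate.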

MCF10A = tested on: MCF10A
Procedure: as §1

MCF7 = tested on: MCF7
Procedure: as §1

MDAMB231 = tested on: MDAMB231
Procedure: as §1

SKBR3 = tested on: SKBR3
Procedure: as §1

BT20 = tested on: BT20
Procedure: as §1

Row | SMILES | normalised growth rate inhibition (HS578T; 0.04 µM) | normalised growth rate inhibition (HS578T; 0.12 µM) | normalised growth rate inhibition (HS578T; 0.37 µM) | normalised growth rate inhibition (HS578T; 1.11 µM) | normalised growth rate inhibition (HS578T; 3.33 µM) | normalised growth rate inhibition (HS578T; 10 µM) | normalised growth rate inhibition (MCF10A; 0.04 µM) | normalised growth rate inhibition (MCF10A; 0.12 µM) | normalised growth rate inhibition (MCF10A; 0.37 µM) | normalised growth rate inhibition (MCF10A; 1.11 µM) | normalised growth rate inhibition (MCF10A; 3.33 µM) | normalised growth rate inhibition (MCF10A; 10 µM) | normalised growth rate inhibition (MCF7; 0.04 µM) | normalised growth rate inhibition (MCF7; 0.12 µM) | normalised growth rate inhibition (MCF7; 0.37 µM) | normalised growth rate inhibition (MCF7; 1.11 µM) | normalised growth rate inhibition (MCF7; 3.33 µM) | normalised growth rate inhibition (MCF7; 10 µM) | normalised growth rate inhibition (MDAMB231; 0.04 µM) | normalised growth rate inhibition (MDAMB231; 0.12 µM) | normalised growth rate inhibition (MDAMB231; 0.37 µM) | normalised growth rate inhibition (MDAMB231; 1.11 µM) | normalised growth rate inhibition (MDAMB231; 3.33 µM) | normalised growth rate inhibition (MDAMB231; 10 µM) | normalised growth rate inhibition (SKBR3; 0.04 µM) | normalised growth rate inhibition (SKBR3; 0.12 µM) | normalised growth rate inhibition (SKBR3; 0.37 µM) | normalised growth rate inhibition (SKBR3; 1.11 µM) | normalised growth rate inhibition (SKBR3; 3.33 µM) | normalised growth rate inhibition (SKBR3; 10 µM) | normalised growth rate inhibition (BT20; 0.04 µM) | normalised growth rate inhibition (BT20; 0.12 µM) | normalised growth rate inhibition (BT20; 0.37 µM) | normalised growth rate inhibition (BT20; 1.11 µM) | normalised growth rate inhibition (BT20; 3.33 µM) | normalised growth rate inhibition (BT20; 10 µM)
1 | Cc1cc(C(=O)NOCCO)c(Nc2ccc(I)cc2F)n(C)c1=O [AZD-8330] | 0.244 ± 0.066 | 0.212 ± 0.072 | 0.217 ± 0.11 | 0.213 ± 0.11 | 0.217 ± 0.1 | 0.197 ± 0.11 | 0.0964 ± 0.11 | 0.0999 ± 0.1 | 0.113 ± 0.08 | 0.131 ± 0.068 | 0.142 ± 0.075 | 0.143 ± 0.1 | 0.331 ± 0.077 | 0.33 ± 0.043 | 0.342 ± 0.041 | 0.41 ± 0.049 | 0.405 ± 0.029 | 0.465 ± 0.025 | 0.0852 ± 0.054 | 0.0627 ± 0.033 | 0.0584 ± 0.026 | 0.0698 ± 0.013 | 0.0774 ± 0.044 | 0.0933 ± 0.0085 | 0.497 ± 0.12 | 0.64 ± 0.045 | 0.708 ± 0.055 | 0.76 ± 0.064 | 0.778 ± 0.048 | 0.814 ± 0.076 | 0.685 ± 0.018 | 0.741 ± 0.034 | 0.748 ± 0.0083 | 0.739 ± 0.025 | 0.786 ± 0.01 | 0.803 ± 0.022
2 | CC[C@@H]1C(=O)N(C)c2cnc(Nc3ccc(C(=O)NC4CCN(C)CC4)cc3OC)nc2N1C1CCCC1 [BI-2536] | -0.128 ± 0.11 | -0.125 ± 0.14 | -0.0972 ± 0.11 | -0.0687 ± 0.11 | -0.0582 ± 0.1 | -0.125 ± 0.16 | -0.0473 ± 0.13 | -0.0192 ± 0.14 | 0.00696 ± 0.13 | 1.1e-05 ± 0.11 | -0.0132 ± 0.098 | 0.00366 ± 0.082 | 0.101 ± 0.044 | 0.0593 ± 0.017 | 0.0551 ± 0.044 | 0.0492 ± 0.066 | 0.0223 ± 0.047 | -0.191 ± 0.038 | 0.0155 ± 0.14 | 0.00874 ± 0.1 | 0.00566 ± 0.14 | 0.0242 ± 0.14 | 0.0274 ± 0.12 | -0.0537 ± 0.25 | -0.136 ± 0.22 | -0.151 ± 0.18 | -0.109 ± 0.23 | -0.15 ± 0.23 | -0.158 ± 0.2 | -0.208 ± 0.25 | -0.177 ± 0.15 | -0.203 ± 0.19 | -0.198 ± 0.17 | -0.163 ± 0.16 | -0.143 ± 0.14 | -0.137 ± 0.17
3 | O=C(Nc1cccc(Nc2ncc(Br)c(NCCc3cnc[nH]3)n2)c1)N1CCCC1 [BX-912] | 0.967 ± 0.021 | 0.906 ± 0.045 | 0.756 ± 0.16 | 0.375 ± 0.042 | 0.143 ± 0.076 | -0.103 ± 0.14 | 0.95 ± 0.0022 | 0.92 ± 0.062 | 0.648 ± 0.3 | 0.206 ± 0.067 | 0.172 ± 0.068 | 0.0883 ± 0.057 | 0.816 ± 0.053 | 0.866 ± 0.058 | 0.731 ± 0.17 | 0.459 ± 0.1 | 0.293 ± 0.063 | 0.0193 ± 0.03 | 0.903 ± 0.0098 | 0.901 ± 0.083 | 0.694 ± 0.32 | 0.404 ± 0.23 | 0.194 ± 0.14 | -0.0228 ± 0.27 | 0.724 ± 0.1 | 0.719 ± 0.089 | 0.175 ± 0.19 | -0.0702 ± 0.08 | -0.0412 ± 0.053 | -0.0312 ± 0.089 | 0.8964 ± 0.0089 | 0.943 ± 0.034 | 0.936 ± 0.034 | 0.939 ± 0.032 | 0.839 ± 0.12 | 0.355 ± 0.13
